Assays:
[1] = system: HBV DNA in HepG2.2.15 cells; test: HBV DNA replication in HepG2.2.15 cells treated with ABT-263 or ABT-737; assay type: cell-based; conditions: for HBV DNA: 2 days; for inhibition of HBV DNA replication (in words): 125-1000 nM, 48 h
Experimental: (§1) Fig. 6 The HBx-aa118–127 peptide, but not ABT-263, inhibits HBV replication and transcription in HepG2.2.15 cells. a HepG2.2.15 cells were treated with 125, 250, 500, and 1000 nM of ABT-263 for 2 days. Cytoplasmic HBV viral particles were isolated and the viral DNA replication intermediates were quantified (Methods). The results represent the fold change of the replicative intermediates in HepG2.2.15 cells from the indicated treatments, compared with those without treatment. b HepG2.2.15 cells were treated with the indicated concentrations of ABT-263 for 2 days. The lysate was analyzed by immunoblotting using antibodies to caspase-3 (CASP3) and GAPDH (glyceraldehyde 3-phosphate dehydrogenase). c, d The HBx-aa113–135, HBx-aa118–127, or the control peptides were delivered into HepG2.2.15 cells using PEP-1 nanoparticles (Methods). The levels of HBV DNA (c) and the levels of HBV S-antigen (HBsAg) expression (d) in culture medium collected from HepG2.2.15 cells were measured (Methods). The results are shown as fold change compared to that of the control peptide. e–g HepG2-NTCP cells were transfected with HBx118–127 peptide with concentration of […], and 50 μg/ml or unrelated control peptide during HBV infection (multiplicity of infection (MOI) = 200), respectively. e HBV e-antigen (HBeAg), f HBV DNA, and g cell viability were measured at day 8 after HBV infection. Data shown represent mean ± SD. Significance is indicated on the top. Not significant (ns): *P < 0.05, **P < 0.01; two-tailed unpaired t tests (n = 3 biologically independent samples). Source data are provided as a Source Data file […]
ABT-263 and ABT-737, the picomolar BH3 mimetics, were purchased from Apexbt Technology LLC (Houston, TX, USA). HepG2.2.15 cells were treated with 125, 250, 500, and 1000 nM of ABT-263 or ABT-737 for 48 h. Cytoplasmic HBV viral particles and HBV DNA were then isolated for quantification.
ABT-263 or ABT-737 for two days. Cytoplasmic HBV viral particles were isolated and the viral DNA replication intermediates were quantified by real-time PCR using a specific primer set targeting HBS ORF (Materials and Methods). The results represent the fold change of the replicative intermediates in HepG2.2.15 cells from the indicated treatments, compared with those without treatment. b HepG2.2.15 cells were treated with the indicated concentrations of ABT-263 or ABT-737 for two days. The lysate was analyzed by immunoblotting using antibodies to Caspase-3 (CASP3) and GAPDH.
Data shown represent mean ± SD. Significance is indicated on the top. Not significant (ns): P > 0.05; two-tailed unpaired t-tests. Source data are provided as a Source Data […]
(1 picture or pasted object on this page, not shown here)

[2] = system: caspase-3 (CASP3); test: Caspase-3 proteolytic activation in HepG2.2.15 cells (immunoblot); assay type: cell-based; conditions: HepG2.2.15, 2 days
Experimental: as §1, with “infection.” for “infection. Data shown represent mean ± SD. Significance is indicated on the top. Not significant (ns): *P < 0.05, **P < 0.01; two-tailed unpaired t tests (n = 3 biologically independent samples). Source data are provided as a Source Data file”

[3] = system: HBV in HepG2.2.15 cells; test: Combination of HBx118–127 and ABT-263 on HBV in HepG2.2.15 cells; assay type: cell-based; conditions: ABT-263 1 μM, HBx118–127 via PEP-1; for HBV DNA: HepG2.2.15 culture medium, 48 h in total; for HBV DNA / HBeAg in culture medium / HBsAg in culture medium / Intracellular HBcAg: sequential: ABT-263 12 h then HBx118–127 36 h; for HBeAg in culture medium / HBsAg in culture medium / Intracellular HBcAg: HepG2.2.15, 48 h in total
Experimental: In all panels, from left to right (bars 1–5), cells were treated with placebo buffer, HBx118–127 only, ABT-263 only, HBx118–127 and ABT-263 together, and ABT-263, followed by HBx118–127, respectively. The cells in bars 1–4 were treated for 48 h, whereas the cells in bar 5 were first treated by ABT-263 for 12 h, followed by treatment with HBx118–127 for another 36 h. The final concentration of ABT-263 was 1 μM in the culture medium, while HBx-aa118–127 was delivered by PEP-1 nanoparticles. After 48-h treatment, the protein expression levels of HBV S-antigen (HBsAg) (a) and HBV e-antigen (HBeAg) (b) in the culture medium, the intracellular protein expression level of HBV core antigen (HBcAg) (c), and the HBV viral DNA tilter (d) in the culture medium of HepG2.2.15 cells were measured (Methods). The results are shown as fold changes compared to the values obtained from the cells treated with the placebo buffer. Data shown represent mean ± SD. Significance is indicated on the top. Not significant (ns): *P < 0.05, **P < 0.01, ***P < 0.001; two-tailed unpaired t tests (n = 3 biologically independent samples). Source data are provided as a Source Data file
The levels of HBsAg, HBeAg, and HBcAg expression were measured by chemiluminescence, using Commercial Assay Kit (Wantai, Beijing, China). Northern blot analysis of HBV RNA, Southern blot analysis of HBV DNA, and real-time PCR quantification of HBV DNA are described in the Supplementary Methods.

[4] = biological target: T1, Bcl-xL (Homo sapiens, UniProt Q07817, DEL27-82); conditions: cited from earlier work
T1 construct: 6xHis-SUMO (N, cleaved yes); made in house; host or cells: Escherichia coli BL21(DE3)
T1 sequence (Q07817 with tags, fused parts or gaps DEL27-82 limits assumed): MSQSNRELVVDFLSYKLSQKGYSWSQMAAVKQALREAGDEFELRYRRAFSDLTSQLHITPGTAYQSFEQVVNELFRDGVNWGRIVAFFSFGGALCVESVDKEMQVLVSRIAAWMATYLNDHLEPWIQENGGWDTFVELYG

Row | SMILES | HBV DNA ([1]; 125 nM, replicate 1) | HBV DNA ([1]; 125 nM, replicate 2) | HBV DNA ([1]; 125 nM, replicate 3) | HBV DNA ([1]; 250 nM, replicate 1) | HBV DNA ([1]; 250 nM, replicate 2) | HBV DNA ([1]; 250 nM, replicate 3) | HBV DNA ([1]; 500 nM, replicate 1) | HBV DNA ([1]; 500 nM, replicate 2) | HBV DNA ([1]; 500 nM, replicate 3) | HBV DNA ([1]; 1000 nM, replicate 1) | HBV DNA ([1]; 1000 nM, replicate 2) | HBV DNA ([1]; 1000 nM, replicate 3) | inhibition of HBV DNA replication (in words) [1] | proteolytic activation of caspase-3 (in words) [2] | reported Bcl-xL inhibitor potency (in words) [4] | further results
1 | CC1(C)CCC(c2ccc(Cl)cc2)=C(CN2CCN(c3ccc(C(=O)NS(=O)(=O)c4ccc(N[C@H](CCN5CCOCC5)CSc5ccccc5)c(S(=O)(=O)C(F)(F)F)c4)cc3)CC2)C1 [ABT-263] | 0.966 fold change to non-treatment | 1.035 fold change to non-treatment | 1.028 fold change to non-treatment | 1.021 fold change to non-treatment | 0.966 fold change to non-treatment | 0.946 fold change to non-treatment | 1.021 fold change to non-treatment | 0.973 fold change to non-treatment | 0.966 fold change to non-treatment | 1.000 fold change to non-treatment | 0.940 fold change to non-treatment | 0.940 fold change to non-treatment | did not inhibit HBV DNA replication | induced significant proteolytic activation of caspase-3 | picomolar | HBV DNA ([3]; replicate 1): 1.089 fold-change to control; HBV DNA ([3]; replicate 2): 1.052 fold-change to control; HBV DNA ([3]; replicate 3): 0.924 fold-change to control; HBeAg in culture medium ([3]; replicate 1): 1.047 fold-change to control; HBsAg in culture medium ([3]; replicate 1): 0.956 fold-change to control; Intracellular HBcAg ([3]; replicate 1): 0.979 fold-change to control; HBeAg in culture medium ([3]; replicate 2): 0.911 fold-change to control; HBsAg in culture medium ([3]; replicate 2): 0.938 fold-change to control; Intracellular HBcAg ([3]; replicate 2): 0.909 fold-change to control; HBeAg in culture medium ([3]; replicate 3): 0.937 fold-change to control; HBsAg in culture medium ([3]; replicate 3): 0.832 fold-change to control; Intracellular HBcAg ([3]; replicate 3): 0.921 fold-change to control; effect on HBV replication (in words) ([3]; HepG2.2.15): did not affect HBV replication
2 | CN(C)CC[C@H](CSc1ccccc1)Nc1ccc(S(=O)(=O)NC(=O)c2ccc(N3CCN(Cc4ccccc4-c4ccc(Cl)cc4)CC3)cc2)cc1[N+](=O)[O-] [ABT-737] | 1.000 fold change to non-treatment | 0.986 fold change to non-treatment | 0.979 fold change to non-treatment | 1.110 fold change to non-treatment | 1.035 fold change to non-treatment | 1.007 fold change to non-treatment | 0.953 fold change to non-treatment | 1.000 fold change to non-treatment | 1.021 fold change to non-treatment | 0.993 fold change to non-treatment | 1.021 fold change to non-treatment | 1.021 fold change to non-treatment | did not inhibit HBV DNA replication | induced significant proteolytic activation of caspase-3 | picomolar | –

Reference: publication PMC6642116, “Structural and functional analyses of hepatitis B virus X protein BH3-like domain and Bcl-xL interaction” (Nature Communications, 2019)
